Test results published in the supplement of paper PMC10331698.
± gives the standard deviation of the averaged measurements.

Key:
Assay in all cases: level (log10 ratio to DMSO vehicle control); higher = higher biomarker level / cell amount than vehicle control
[1] = compound: C=CC(=O)OCC(F)(F)C(F)(F)C(F)(F)C(F)(F)C(F)(F)C(F)(F)C(F)(F)C(F)F [1H,1H,9H-Perfluorononyl acrylate]; details: in DMSO
Procedure: (§1)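 BioMAP Diversity Plus panel of 12 human primary cell co-culture systems (3C, 4H, LPS, SAg, BT, BF4T, BE3C, CASM3C, HDF3CGF, KF3CT, MyoF, Mphg). Compounds were added 1 h before stimulation and left for 24 h (MyoF 48 h; BT 72 h for soluble read-outs or 6 d for IgG). Biomarkers were read by ELISA, cytotoxicity by SRB, PBMC viability and proliferation by Alamar Blue. Each well value was divided by the mean of 8 DMSO control wells on the same plate and log10 transformed; duplicate blinded samples were tested at 4 concentrations.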

Tetrafluorosuccinic acid = compound: O=C(O)C(F)(F)C(F)(F)C(=O)O [Tetrafluorosuccinic acid]; details: in DMSO
Procedure: as §1

[2] = compound: O=C(CC(=O)C(F)(F)C(F)(F)C(F)(F)F)c1cccs1 [(Perfluorobutyryl)-2-thenoylmethane]; details: in DMSO
Procedure: as §1

[3] = compound: FC(F)(I)C(F)(F)C(F)(F)C(F)(F)C(F)(F)C(F)(F)I [1,6-Diiodoperfluorohexane]; details: 6700 nM; in DMSO
Procedure: as §1

Perfluorooctanoic acid = compound: O=C(O)C(F)(F)C(F)(F)C(F)(F)C(F)(F)C(F)(F)C(F)(F)C(F)(F)F [Perfluorooctanoic acid]; details: in DMSO
Procedure: as §1

[4] = compound: C=CC(=O)OCC(F)(F)C(F)(F)C(F)(F)C(F)(F)COC(=O)C=C [1H,1H,6H,6H-Perfluorohexane-1,6-diol diacrylate]; details: 6700 nM; in DMSO
Procedure: as §1

[5] = compound: OCCC(F)(F)C(F)(F)C(F)(F)C(F)(F)C(F)(F)C(F)(F)C(F)(F)C(F)(F)F [8:2 Fluorotelomer alcohol]; details: 6700 nM; in DMSO
Procedure: as §1

[6] = compound: O=C(O)C(F)(F)C(F)(F)C(F)(F)C(F)(F)C(F)(F)C(F)(F)C(F)(F)F [Ammonium perfluorooctanoate]; details: in DMSO
Procedure: as §1

[7] = compound: OCCCC(F)(F)C(F)(F)C(F)(F)C(F)(F)C(F)(F)C(F)(F)C(F)(F)C(F)(F)F [3-(Perfluorooctyl)propanol]; details: 6700 nM; in DMSO
Procedure: as §1

Test System | level (log10) ([1]; 6700 nM) | level (log10) ([1]; 20000 nM) | level (log10) ([1]; 60000 nM) | level (log10) (Tetrafluorosuccinic acid; 6700 nM) | level (log10) (Tetrafluorosuccinic acid; 20000 nM) | level (log10) (Tetrafluorosuccinic acid; 60000 nM) | level (log10) ([2]; 6700 nM) | level (log10) ([2]; 20000 nM) | level (log10) [3] | level (log10) (Perfluorooctanoic acid; 6700 nM) | level (log10) (Perfluorooctanoic acid; 20000 nM) | level (log10) (Perfluorooctanoic acid; 60000 nM) | level (log10) [4] | level (log10) [5] | level (log10) ([6]; 6700 nM) | level (log10) ([6]; 20000 nM) | level (log10) ([6]; 60000 nM) | level (log10) [7]
BT:PBMC Cytotoxicity | -0.047 ± 0.0085 | -0.1 ± 0.0085 | -0.287 ± 0.1 | 0.0305 ± 0.012 | 0.026 ± 0.0042 | 0.024 ± 0.014 | 0.0005 ± 0.025 | -0.0515 ± 0.037 | 0.035 | -0.001 ± 0.028 | 0.0565 ± 0.013 | 0.105 ± 0.033 | -0.186 ± 0.0042 | 0.001 ± 0.038 | -0.0115 ± 0.047 | -0.009 ± 0.033 | 0.0565 ± 0.015 | 0.021 ± 0.028
BT:sIL-2 | 0.118 ± 0.042 | -0.0285 ± 0.11 | -0.514 ± 0.61 | -0.0195 ± 0.035 | 0.03 ± 0.083 | 0.0825 ± 0.13 | 0.0385 ± 0.067 | -0.001 ± 0.0014 | -0.059 | 0.0385 ± 0.11 | 0.039 ± 0.093 | 0.046 ± 0.12 | -0.461 ± 0.18 | 0.001 ± 0.052 | -0.046 ± 0.0057 | -0.0075 ± 0.074 | -0.006 ± 0.1 | -0.0245 ± 0.016
BF4T:CCL26/Eotaxin-3 | -0.0095 ± 0.061 | -0.066 ± 0.078 | -0.084 ± 0.018 | 0.018 ± 0.04 | -0.02 ± 0.04 | -0.0075 ± 0.015 | -0.181 ± 0.0035 | -0.464 ± 0.018 | -0.071 | -0.023 ± 0.023 | -0.073 ± 0.013 | -0.11 ± 0.06 | -0.055 ± 0.025 | -0.106 ± 0.012 | 0.004 ± 0.02 | -0.044 ± 0.025 | -0.086 | -0.029 ± 0.017
LPS:CD62E/E-Selectin | -0.002 ± 0.027 | 0.0165 ± 0.026 | -0.008 | 0.0155 ± 0.036 | 0.003 ± 0.011 | 0.0275 ± 0.013 | -0.0755 ± 0.047 | 0.061 ± 0.016 | -0.024 | 0.009 ± 0.017 | -0.01 ± 0.02 | 0.029 ± 0.016 | -0.0155 ± 0.0035 | 0.012 ± 0.018 | -0.0015 ± 0.0092 | -0.012 ± 0.0028 | 0.0025 ± 0.013 | -0.148 ± 0.079
LPS:CXCL8/IL-8 | -0.001 ± 0.047 | 0.0095 ± 0.023 | -0.023 ± 0.028 | -0.0065 ± 0.00071 | -0.003 ± 0.016 | 0.009 ± 0.02 | -0.0595 ± 0.032 | -0.033 ± 0.047 | 0.002 | 0.0155 ± 0.021 | 0.033 ± 0.014 | 0.146 ± 0.057 | -0.0205 ± 0.028 | -0.0375 ± 0.029 | 0.017 ± 0.0042 | 0.038 ± 0.013 | 0.047 ± 0.027 | -0.132 ± 0.014
BF4T:MMP-1 | -0.0185 ± 0.0021 | -0.0005 ± 0.005 | 0.001 ± 0.0057 | 0.016 ± 0.02 | 0.008 ± 0.013 | 0.0295 ± 0.0035 | -0.02 ± 0.011 | -0.0785 ± 0.0092 | -0.006 | -0.002 ± 0.0057 | -0.0005 ± 0.0078 | 0.0265 ± 0.018 | 0.0365 ± 0.018 | 0.0035 ± 0.016 | -0.0025 ± 0.016 | -0.004 ± 0.014 | 0.0105 ± 0.012 | 0.022 ± 0.0099
